{
  "source": "ChEMBL document CHEMBL4706484",
  "about": "“Apigenin-rivastigmine hybrids as multi-target-directed liagnds for the treatment of Alzheimer's disease” (Eur J Med Chem, 2020)",
  "key": {"[1]": {"assay": "Antioxidant activity of compound assessed as trolox equivalent antioxidant capacity by ORAC-FL assay", "assay_type": "functional"}, "Butyrylcholinesterase": {"target": "Butyrylcholinesterase (Rattus norvegicus, UniProt Q9JKC1)", "sequence (Q9JKC1 whole entry)": "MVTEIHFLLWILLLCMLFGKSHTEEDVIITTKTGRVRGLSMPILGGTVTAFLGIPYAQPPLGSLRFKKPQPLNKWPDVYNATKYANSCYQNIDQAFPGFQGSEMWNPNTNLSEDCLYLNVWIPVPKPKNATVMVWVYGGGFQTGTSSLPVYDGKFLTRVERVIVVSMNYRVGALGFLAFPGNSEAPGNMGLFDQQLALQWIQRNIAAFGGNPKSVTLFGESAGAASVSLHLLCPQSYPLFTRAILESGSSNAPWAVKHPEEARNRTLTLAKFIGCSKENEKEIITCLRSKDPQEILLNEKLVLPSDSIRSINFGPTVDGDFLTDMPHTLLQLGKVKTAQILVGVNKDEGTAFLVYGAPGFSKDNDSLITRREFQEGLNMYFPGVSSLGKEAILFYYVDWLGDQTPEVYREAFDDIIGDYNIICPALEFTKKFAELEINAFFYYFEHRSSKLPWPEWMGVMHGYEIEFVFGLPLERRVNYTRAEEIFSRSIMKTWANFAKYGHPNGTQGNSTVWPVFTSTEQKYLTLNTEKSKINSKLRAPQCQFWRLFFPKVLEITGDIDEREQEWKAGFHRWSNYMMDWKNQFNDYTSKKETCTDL", "assay": "Inhibition of rat serum BChE using acetylthiocholine iodide as substrate measured after 15 mins by Ellman's method", "assay_type": "cell-free"}, "Acetylcholinesterase": {"target": "Acetylcholinesterase (Homo sapiens, UniProt P22303)", "sequence (P22303 whole entry)": "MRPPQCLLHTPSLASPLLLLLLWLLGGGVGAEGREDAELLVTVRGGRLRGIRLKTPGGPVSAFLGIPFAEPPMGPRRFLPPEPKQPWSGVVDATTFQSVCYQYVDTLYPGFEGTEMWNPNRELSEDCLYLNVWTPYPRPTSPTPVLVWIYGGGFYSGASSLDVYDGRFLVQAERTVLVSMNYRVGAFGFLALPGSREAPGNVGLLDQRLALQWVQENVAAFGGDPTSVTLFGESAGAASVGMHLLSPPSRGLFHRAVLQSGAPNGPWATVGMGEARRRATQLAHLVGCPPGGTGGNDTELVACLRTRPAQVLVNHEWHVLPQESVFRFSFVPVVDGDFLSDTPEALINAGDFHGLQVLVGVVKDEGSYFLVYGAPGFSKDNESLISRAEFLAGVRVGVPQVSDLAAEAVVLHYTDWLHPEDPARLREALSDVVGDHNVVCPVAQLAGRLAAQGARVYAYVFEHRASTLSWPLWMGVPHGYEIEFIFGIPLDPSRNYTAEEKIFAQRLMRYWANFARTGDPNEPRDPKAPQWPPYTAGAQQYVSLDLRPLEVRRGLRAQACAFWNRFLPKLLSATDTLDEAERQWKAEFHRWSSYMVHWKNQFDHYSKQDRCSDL", "assay": "Inhibition of human erythrocytes AChE using acetylthiocholine iodide as substrate measured after 15 mins by Ellman's method", "assay_type": "tissue-based, Erythrocyte"}, "Cholinesterase [2]": {"target": "T1, Cholinesterase (Homo sapiens, UniProt P06276)", "T1 sequence (P06276 whole entry)": "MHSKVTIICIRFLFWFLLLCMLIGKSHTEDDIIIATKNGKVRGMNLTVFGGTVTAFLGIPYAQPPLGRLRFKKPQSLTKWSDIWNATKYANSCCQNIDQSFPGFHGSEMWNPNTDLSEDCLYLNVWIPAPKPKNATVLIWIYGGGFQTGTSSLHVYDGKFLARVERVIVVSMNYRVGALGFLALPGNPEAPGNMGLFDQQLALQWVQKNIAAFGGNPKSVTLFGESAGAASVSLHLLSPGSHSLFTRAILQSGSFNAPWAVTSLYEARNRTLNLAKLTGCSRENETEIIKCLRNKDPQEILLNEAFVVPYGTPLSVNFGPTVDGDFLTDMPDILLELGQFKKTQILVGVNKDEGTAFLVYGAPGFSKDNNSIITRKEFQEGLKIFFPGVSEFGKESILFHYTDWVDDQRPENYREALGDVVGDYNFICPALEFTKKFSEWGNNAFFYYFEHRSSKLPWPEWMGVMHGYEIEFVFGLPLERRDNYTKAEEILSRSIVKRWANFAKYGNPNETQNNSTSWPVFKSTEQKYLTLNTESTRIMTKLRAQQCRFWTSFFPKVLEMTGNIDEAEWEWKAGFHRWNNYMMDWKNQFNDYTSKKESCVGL", "assay": "Inhibition of human serum BChE using acetylthiocholine iodide as substrate measured after 15 mins by Ellman's method", "assay_type": "cell-free"}, "Cholinesterase [3]": {"target": "T1, Cholinesterase", "assay": "Pseudo-irreversible inhibition of human serum BChE assessed as enzyme recovery activity at IC50 using undiluted compound relative to control", "assay_type": "cell-free", "parameters": "scale not given: the % may be the effect or the level left"}, "[4]": {"target": "Amyloid-beta precursor protein (Homo sapiens) (UniProt P05067)", "sequence (P05067 whole entry)": "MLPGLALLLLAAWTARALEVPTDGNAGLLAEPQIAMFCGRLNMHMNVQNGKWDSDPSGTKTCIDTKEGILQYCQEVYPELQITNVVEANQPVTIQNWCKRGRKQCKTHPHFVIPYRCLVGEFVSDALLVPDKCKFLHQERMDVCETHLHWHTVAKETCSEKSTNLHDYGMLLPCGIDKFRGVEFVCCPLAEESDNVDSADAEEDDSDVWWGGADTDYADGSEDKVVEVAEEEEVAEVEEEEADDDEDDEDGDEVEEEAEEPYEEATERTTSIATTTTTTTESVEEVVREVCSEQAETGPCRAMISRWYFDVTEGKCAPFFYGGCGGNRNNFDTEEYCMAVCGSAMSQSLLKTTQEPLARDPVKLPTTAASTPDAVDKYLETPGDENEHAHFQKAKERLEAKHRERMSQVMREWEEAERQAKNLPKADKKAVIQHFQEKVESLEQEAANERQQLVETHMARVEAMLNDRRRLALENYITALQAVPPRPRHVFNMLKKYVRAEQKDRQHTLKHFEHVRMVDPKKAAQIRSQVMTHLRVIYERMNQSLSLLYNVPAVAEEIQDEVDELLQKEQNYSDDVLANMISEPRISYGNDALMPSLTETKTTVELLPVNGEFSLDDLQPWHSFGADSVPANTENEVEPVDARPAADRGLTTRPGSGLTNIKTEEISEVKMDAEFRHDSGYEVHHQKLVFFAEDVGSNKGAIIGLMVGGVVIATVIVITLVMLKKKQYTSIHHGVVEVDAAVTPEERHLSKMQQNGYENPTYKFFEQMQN", "assay": "Inhibition of self-induced amyloid beta (1 to 42) (unknown origin) aggregation at 25 uM by ThT fluorescence assay relative to control"}, "[5]": {"assay": "Inhibition of copper-induced amyloid beta (1 to 42) (unknown origin) aggregation at 25 uM by ThT fluorescence assay relative to control"}, "[6]": {"assay": "Disaggregation of Copper-induced amyloid beta (1 to 42) (unknown origin) preformed fibrils at 25 uM by ThT fluorescence assay relative to control"}, "[7]": {"target": "Amyloid-beta precursor protein (Homo sapiens) (UniProt P05067)", "assay": "Inhibition of self-induced amyloid beta (1 to 42) (unknown origin) aggregation at 25 uM measured after 24 hrs by TEM analysis"}, "[8]": {"target": "Amyloid-beta precursor protein (Homo sapiens) (UniProt P05067)", "assay": "Disaggregation of self-induced amyloid beta (1 to 42) (unknown origin) preformed fibrils at 25 uM measured after 48 hrs by TEM analysis"}, "PC-12 [9]": {"tested_on": "PC-12", "assay": "Cytotoxicity against rat PC-12 cells assessed as reduction in cell viability <= 100 uM measured after 48 hrs by MTT assay", "assay_type": "cell-based", "details": "pc-12, 48 h"}, "PC-12 [10]": {"tested_on": "PC-12", "assay": "Neuroprotective activity against H2O2-induced cell injury in rat PC-12 cells assessed as cell viability at 5 uM preincubated for 2 hrs followed by H2O2 addition and measured after 24 hrs by MTT assay (reference value: 53.8 %)", "assay_type": "functional", "details": "time 26 hrs, read-out: Activity"}, "PC-12 [11]": {"tested_on": "PC-12", "assay": "Neuroprotective activity against H2O2-induced cell injury in rat PC-12 cells assessed as cell viability at 10 uM preincubated for 2 hrs followed by H2O2 addition and measured after 24 hrs by MTT assay (reference value: 53.8 %)", "assay_type": "functional", "details": "time 26 hrs, read-out: Activity"}, "SH-SY5Y": {"tested_on": "SH-SY5Y", "assay": "Neuroprotective activity against amyloid beta (1 to 42 residues)-induced cell injury in human SH-SY5Y cells assessed as cell viability at 5 uM preincubated for 2 hrs followed by H2O2 addition and measured after 24 hrs by MTT assay (reference value: 52.3 %)", "assay_type": "functional", "details": "time 26 hrs, read-out: Activity"}, "[12]": {"assay": "Metal chelating activity assessed as Al3+-compound complex formation by measuring absorption wavelength at 37.5 uM in presence of 37.5 uM AlCl3 by UV-Vis spectrophotometric analysis"}, "[13]": {"assay": "Metal chelating activity assessed as Zn2+-compound complex formation at 37.5 uM in presence of 37.5 uM ZnCl2 by UV-Vis spectrophotometric analysis"}, "[14]": {"assay": "Inhibition of copper-induced amyloid beta (1 to 42) (unknown origin) aggregation measured after 24 hrs by TEM analysis"}, "[15]": {"assay": "Disaggregation of Copper-induced amyloid beta (1 to 42) (unknown origin) preformed fibrils measured after 48 hrs by TEM analysis"}, "L02": {"tested_on": "L02", "assay": "Hepatoprotective activity H2O2-induced cell injury in human L02 cells assessed as cell viability at 10 uM measured after 48 hrs by MTT assay (reference value: 56.89 %)", "assay_type": "functional", "details": "read-out: Activity"}, "[16]": {"assay": "Acute toxicity in 2 dpf zebrafish assessed as death at 1.25 to 20 ug/ml measured after 3 days", "parameters": "species or system Danio rerio", "details": "in vivo, 72 h, dose 1.25-20 µg/ml, time 3 day"}, "[17]": {"assay": "Acute toxicity in 2 dpf zebrafish assessed as yolk sac absorption delay at 12.5 ug/ml measured after 3 days relative to control", "parameters": "species or system Danio rerio", "details": "in vivo, 72 h, at 12.5 µg/mL, time 3 day"}, "[18]": {"assay": "Acute toxicity in 2 dpf zebrafish assessed as yolk sac absorption delay at 1.39 ug/ml measured after 3 days", "parameters": "species or system Danio rerio", "details": "in vivo, 72 h, dose 1.39 µg/ml, time 3 day"}, "[19]": {"assay": "Acute toxicity in 2 dpf zebrafish assessed as absent blood flow at 1.39 to 12.5 ug/ml measured after 3 days", "assay_type": "tissue-based, Danio rerio", "details": "72 h, dose 1.39-12.5 µg/ml, time 3 day"}, "[20]": {"assay": "Acute toxicity in 2 dpf zebrafish assessed as small or misshapen eyes at 1.39 to 12.5 ug/ml measured after 3 days", "parameters": "species or system Danio rerio", "details": "in vivo, 72 h, dose 1.39-12.5 µg/ml, time 3 day"}, "[21]": {"assay": "Acute toxicity in 2 dpf zebrafish assessed as abnormal intestine at 1.39 to 12.5 ug/ml measured after 3 days", "assay_type": "tissue-based, Danio rerio", "details": "in vivo, 72 h, dose 1.39-12.5 µg/ml, time 3 day"}, "[22]": {"assay": "Acute toxicity in 2 dpf zebrafish assessed as degenerating trunk muscle within somite at 1.39 to 12.5 ug/ml measured after 3 days", "assay_type": "tissue-based, Danio rerio", "details": "in vivo, 72 h, dose 1.39-12.5 µg/ml, time 3 day"}, "[23]": {"assay": "Acute toxicity in 2 dpf zebrafish assessed as effect on liver at 1.39 to 12.5 ug/ml measured after 3 days", "parameters": "species or system Danio rerio", "details": "in vivo, 72 h, dose 1.39-12.5 µg/ml, time 3 day"}, "Danio rerio [24]": {"organism": "Danio rerio", "assay": "Antialzheimer activity against 3 dpf zebrafish model of AlCl3-induced AD assessed as motility by measuring change in speed at 1.4 ug/ml (reference value: 1.05 mm/s)", "assay_type": "functional", "details": "dose 1.4 µg/ml"}, "Danio rerio [25]": {"organism": "Danio rerio", "assay": "Antialzheimer activity against 3 dpf zebrafish model of AlCl3-induced AD assessed as motility by measuring change in speed at 12.5 ug/ml (reference value: 1.05 mm/s)", "assay_type": "functional", "details": "dose 12.5 µg/ml"}, "Danio rerio [26]": {"organism": "Danio rerio", "assay": "Antialzheimer activity against 3 dpf zebrafish model of AlCl3-induced AD assessed as motility by measuring efficacy on speed change at 1.4 ug/ml relative to control", "assay_type": "functional", "details": "dose 1.4 µg/ml"}, "Danio rerio [27]": {"organism": "Danio rerio", "assay": "Antialzheimer activity against 3 dpf zebrafish model of AlCl3-induced AD assessed as motility by measuring efficacy on speed change at 12.5 ug/ml relative to control", "assay_type": "functional", "details": "dose 12.5 µg/ml"}, "Danio rerio [28]": {"organism": "Danio rerio", "assay": "Protection against amyloid beta (1 to 40 residues)-induced vascular injury in transgenic zebrafish assessed as vascular injury rate at 4.2 ug/ml (reference value: 73.3 %)", "assay_type": "functional", "details": "dose 4.2 µg/ml"}, "[29]": {"assay": "Acute toxicity in Kunming mouse assessed as abnormal behavior at 1000 mg/kg", "assay_type": "organism-based", "details": "in vivo"}, "Mus musculus [30]": {"tested_on": "Mus musculus", "assay": "Reversal of scopolamine-induced Kunming mouse model of memory impairment assessed as spontaneous alteration at 10 mg/kg by Y-maze test (reference value: 41.6 %)", "assay_type": "functional"}, "Mus musculus [31]": {"tested_on": "Mus musculus", "assay": "Reversal of scopolamine-induced Kunming mouse model of memory impairment assessed as spontaneous alteration at 5 mg/kg by Y-maze test", "assay_type": "functional, organism-based"}, "Mus musculus [32]": {"tested_on": "Mus musculus", "assay": "Antialzheimer activity in scopolamine-induced Kunming mouse model of memory impairment assessed as Q30 bases ratio (QC data) in brain hippocampus at 10 mg/kg by illumina sequencing method (reference value: 96.67 %)", "assay_type": "functional"}, "Mus musculus [33]": {"tested_on": "Mus musculus", "assay": "Antialzheimer activity in scopolamine-induced Kunming mouse model of memory impairment assessed as total mapped in brain hippocampus at 10 mg/kg by illumina sequencing method (reference value: 97.13 %)", "assay_type": "functional"}},
  "note": "Active and inactive are the calls of the source. The rule behind the calls is not given here.",
  "data": [
    {"smiles": "CCN(C)C(=O)Oc1ccc(-c2cc(=O)c3c(O)cc(OC(=O)N(C)CC)cc3o2)cc1", "values": [
      {"measurement": "Activity", "setting": "[1]", "result": 1.3, "unit": "equiv"},
      {"measurement": "IC50", "setting": "Butyrylcholinesterase", "result": 12.1, "unit": "µM"},
      {"measurement": "IC50", "setting": "Acetylcholinesterase", "result": 6.8, "unit": "µM"},
      {"measurement": "IC50", "setting": "Cholinesterase [2]", "result": 16.1, "unit": "µM"},
      {"measurement": "Activity", "setting": "Cholinesterase [3]", "result": 50.6, "unit": "%"},
      {"measurement": "inhibition", "setting": "[4]", "result": 77.9, "unit": "%"},
      {"measurement": "inhibition", "setting": "[5]", "result": 78.9, "unit": "%"},
      {"measurement": "Activity", "setting": "[6]", "result": 64.6, "unit": "%"},
      {"measurement": "inhibition", "setting": "[7]", "result": "Active"},
      {"measurement": "Activity", "setting": "[8]", "result": "Active"},
      {"measurement": "Activity", "setting": "PC-12 [9]", "result": "Non-Toxic"},
      {"measurement": "viability at 5 µM", "setting": "PC-12 [10]", "result": 68.6, "unit": "%"},
      {"measurement": "viability at 10 µM", "setting": "PC-12 [11]", "result": 76.7, "unit": "%"},
      {"measurement": "viability at 5 µM", "setting": "SH-SY5Y", "result": 63.9, "unit": "%"},
      {"measurement": "Activity", "setting": "[12]", "result": 384, "unit": "nm"},
      {"measurement": "Activity", "setting": "[13]", "result": "inactive"},
      {"measurement": "inhibition", "setting": "[14]", "result": "Active"},
      {"measurement": "Activity", "setting": "[15]", "result": "Active"},
      {"measurement": "viability at 10 µM", "setting": "L02", "result": 75.6, "unit": "%"},
      {"measurement": "Activity", "setting": "[16]", "result": "Non-Toxic"},
      {"measurement": "Activity", "setting": "[17]", "result": 93.3, "unit": "%"},
      {"measurement": "Activity", "setting": "[18]", "result": "Non-Toxic"},
      {"measurement": "Activity", "setting": "[19]", "result": "Non-Toxic"},
      {"measurement": "Activity", "setting": "[20]", "result": "Non-Toxic"},
      {"measurement": "Activity", "setting": "[21]", "result": "Non-Toxic"},
      {"measurement": "Activity", "setting": "[22]", "result": "Non-Toxic"},
      {"measurement": "Activity", "setting": "[23]", "result": "Non-Toxic"},
      {"measurement": "Activity", "setting": "Danio rerio [24]", "result": 1.8, "unit": "millimeter/sec"},
      {"measurement": "Activity", "setting": "Danio rerio [25]", "result": 2.17, "unit": "millimeter/sec"},
      {"measurement": "Efficacy", "setting": "Danio rerio [26]", "result": 58, "unit": "%"},
      {"measurement": "Efficacy", "setting": "Danio rerio [27]", "result": 87, "unit": "%"},
      {"measurement": "Activity", "setting": "Danio rerio [28]", "result": 53, "unit": "%"},
      {"measurement": "Activity", "setting": "[29]", "result": "Non-Toxic"},
      {"measurement": "Activity", "setting": "Mus musculus [30]", "result": 63.4, "unit": "%"},
      {"measurement": "Activity", "setting": "Mus musculus [31]", "result": "inactive"},
      {"measurement": "Activity", "setting": "Mus musculus [32]", "result": 96.43, "unit": "%"},
      {"measurement": "Activity", "setting": "Mus musculus [33]", "result": 96.87, "unit": "%"}
    ]}
  ]
}
